The record followed here is paper PMC12565843, “Phenolic Compounds from Hypericum cerastoides (Spach) N. Robson: Dereplication via UHPLC-HRMS/MS, Isolation, Identification, and Preliminary Biological Evaluation Focusing on Radical-Scavenging, Anti-α-Glucosidase, and Pro-Lipase Activities” (Metabolites, 2025).

Assay [1] is described as follows: DPPH radical-scavenging activity assay. The following applies: compounds and controls at 100 µM in EtOH, 30 min, 517 nm; mean ± SD. Here is the method: The scavenging activity of phenolic compounds against DPPH radicals was assessed using Kokanova-Nedialkova and Nedialkov methods, with some modifications. Briefly, 300 µL of each compound in EtOH (100 µM) was mixed with 300 µL of DPPH ethanol solution (100 µM). The reaction mixture was thoroughly vortexed and left in the dark at room temperature for 30 min. The absorbance of the mixture was measured at 517 nm. The following equation calculates the ability to scavenge DPPH radicals: %DPPH radical scavenging activity=Abscontrol−Abssample/Abscontrol×100, where Abscontrol is the absorbance of the DPPH radical in EtOH, and Abssample is the absorbance of the DPPH radical solution mixed with a sample.
Positive controls were vitamin C (100 µM) and Trolox (100 µM).
(Loss of DPPH colour is used to gauge radical scavenging.)

The nature of assay [2]: ABTS radical-scavenging activity assay. Particulars: compounds and controls at 100 µM in EtOH, 7 min, 734 nm, mean ± SD. Here is the method:
For ABTS assay, the procedure followed the method of Kokanova-Nedialkova and Nedialkov with some modifications. The stock solutions included 7 mM ABTS and 2.4 mM potassium persulfate. The working solution was then prepared by mixing the two stock solutions in equal quantities and allowing them to react for 12–14 h at room temperature in the dark. The solution was then diluted by mixing 1 mL of the ABTS solution with 30 mL of ethanol. A fresh ABTS solution was prepared for each assay. Furthermore, 300 µL of each compound in EtOH (100 µM) was allowed to react with 1 mL of the ABTS solution, and the absorbance was taken at 734 nm after 7 min using a spectrophotometer. The ABTS scavenging capacity of the compound was calculated as: %ABTS radical scavenging activity=Abscontrol−Abssample/Abscontrol×100 where Abscontrol is the absorbance of the ABTS radical in ethanol, and Abssample is the absorbance of an ABTS radical solution mixed with a sample.
Vitamin C (100 µM) and Trolox (100 µM) were used as positive controls.

For a further assay, the target named is α-glucosidase. As to the kind of experiment: Anti-α-glucosidase activity assay (LC-MS, p-nitrophenyl-α-D-glucopyranoside substrate). Type of assay: biochemical. Particulars: five concentrations 1000-62.5 µM, NA = the compound is not active; for IC50: read-out: α-Glucosidase Inhibitory Activity (IC50 ± SD). As to the method:
The α-Glucosidase inhibitory activity was determined by LC-MS using p-nitrophenyl-α-D-glucopyranoside as the substrate, as described by Kokanova-Nedialkova et al.. The assay mixture (160 µL) was prepared accordingly to Kang et al. with some modifications. An aliquot of 20 µL of a sample in phosphate buffer (pH 6.8) containing 10% DMSO (or phosphate buffer containing 10% DMSO as a control), 100 µL phosphate buffer (pH 6.8), and 20 µL enzyme solution (0.2 U/mL α-glucosidase in phosphate buffer) were mixed and incubated at 37 °C for 15 min. Then, 20 µL of substrate solution (2.5 mM p-nitrophenyl-α-D-glucopyranoside, prepared in the same buffer) was added. The reaction was processed at 37 °C for 15 min and stopped by adding 840 µL acetonitrile (AcCN). The supernatant was then used for LC-MS analysis after centrifugation at 12,000 rpm for 10 min. The amount of p-nitrophenol released from p-nitrophenyl-α-D-glucopyranoside was quantified using liquid chromatography-[…] (LC-MS). The inhibitory rates (%) were calculated according to the formula: % α−Glucosidase inhibitory activity=Aк−Asample/Aк×100, where Aк is the area of the p-nitrophenol peak in the control, and Asample is the area of the p-nitrophenol peak in the sample.

For assay [3], the target named is T1, lipase from porcine pancreas, Type II (Sus scrofa, UniProt P00591).
T1 construct: lipase from porcine pancreas, Type II; purchased Sigma-Aldrich L3126; host or cells: porcine pancreas (tissue-derived)
T1 sequence (P00591 1-450): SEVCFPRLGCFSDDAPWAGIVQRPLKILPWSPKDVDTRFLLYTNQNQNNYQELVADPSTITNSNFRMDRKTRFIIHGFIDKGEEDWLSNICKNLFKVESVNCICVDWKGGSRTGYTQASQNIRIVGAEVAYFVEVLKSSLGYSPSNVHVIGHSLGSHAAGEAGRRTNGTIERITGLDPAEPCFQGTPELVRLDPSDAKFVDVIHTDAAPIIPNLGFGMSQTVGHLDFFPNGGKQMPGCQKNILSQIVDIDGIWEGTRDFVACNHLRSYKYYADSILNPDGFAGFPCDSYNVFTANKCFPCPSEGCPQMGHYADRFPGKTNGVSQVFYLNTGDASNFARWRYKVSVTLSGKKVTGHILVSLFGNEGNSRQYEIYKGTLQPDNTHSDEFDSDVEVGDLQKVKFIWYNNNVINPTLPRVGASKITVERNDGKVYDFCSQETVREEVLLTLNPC
Description: Assay for modulation of lipase activity (LC-MS, p-nitrophenyl laurate substrate). Type of assay: biochemical. Particulars: for Effect on lipase activity (in words): tested at 200-12.5 µM; for Fold increase of lipase activity compared to the control: 200 µM. As to the method: This assay was adapted from previous reports for the determination of anti-lipase and pro-lipase activity by LC-MS [14]. Briefly, lipase from porcine pancreas, Type II (Sigma-Aldrich, St. Louis, MA, USA, product L3126), was dissolved in ultra-pure water at a 5 mg/mL concentration. The supernatant was then used after centrifugation at 15,000 rpm for 10 min. The assay buffer was 100 mM Tris buffer (pH 8.2), and p-nitrophenyl laurate was used as the substrate. The substrate stock was 2 mg p-nitrophenyl laurate dissolved in 1 mL isopropanol and 4 mL 5 mM sodium acetate (pH 5.0) containing 1% Triton X-100 (Fisher Scientific, Bridgewater, NJ, USA). The mixture was heated to facilitate dissolution, thoroughly mixed, and then cooled to room temperature. The assay mixture (1 mL) contained 20 µL of a sample in DMSO (or DMSO as a control), 860 µL of Tris buffer (pH 8.2), and 30 µL of enzyme solution. The mixture was combined, shaken, and incubated at 37 °C for 15 min. Then, 90 µL of substrate solution was added and shaken again. The reaction was processed at 37 °C for 2 h and stopped by adding 800 µL CH3CN to 200 µL of the assay mixture. The supernatant was then used for LC-MS analysis after centrifugation at 15,000 rpm for 10 min. The amount of p-nitrophenol released from p-nitrophenyl laurate was quantified using LC-MS. Lipase inhibitory activity (%) was calculated according to the formula: % Lipase inhibitory activity=Aк−Asample/Aк×100, where Aк is the area of the p-nitrophenol peak in the control, and Asample is the area of the p-nitrophenol peak in the sample.
Pro-lipase activity (%) was calculated according to the formula: % Prolipase activity=Asample−Ak/Aк×100, where Aк is the area of the p-nitrophenol peak in the control, and Asample is the area of the p-nitrophenol peak in the sample.

By IC50 is commonly meant the midpoint of a concentration-inhibition curve.

Each structure is given as a SMILES string. Where “and” joins values, the source holds several entries; their conditions need not be identical. Equal entries are not always repeated.

As for `O=C(C=Cc1ccc(O)cc1)OC1CC(O)(C(=O)O)CC(O)C1O` (centres unmarked) [HC1, coumaroylquinic acid], the “DPPH % (radical-scavenging activity)” value in assay [1] is 18.95% and 18.95 ± 0.36%. Further, the “ABTS % (radical-scavenging activity)” value in assay [2] is 22.12% and 22.12 ± 0.63%. Also, on α-glucosidase, the IC50 was 44 ± 5 µM. Further, the “Effect on lipase activity (in words)” value in assay [3] is “do not inhibit lipase activity”.

On to `O=c1c(OC2OC(CO)C(O)C(O)C2O)c(-c2cc(O)c(O)c(O)c2)oc2cc(O)cc(O)c12` (centres unmarked) [HC2, myricetin-3-O-glucoside], for which the “DPPH % (radical-scavenging activity)” value in assay [1] was 84.32% and 84.32 ± 0.23%. In assay [2], the “ABTS % (radical-scavenging activity)” value was 97.23% and 97.23 ± 0.45%. On α-glucosidase, the “α-Glucosidase Inhibitory Activity (IC50 ± SD)” value is “did not exhibit measurable inhibitory activity”. In assay [3], the “Fold increase of lipase activity compared to the control” value is “fivefold” and the “Effect on lipase activity (in words)” value was “do not inhibit lipase activity”.

`O=c1c(OC2OC(CO)C(O)C(O)C2O)c(-c2cc(O)c(O)c(O)c2)oc2cc(O)cc(O)c12` (centres unmarked) [HC3, myricetin-3-O-galactoside]: the “DPPH % (radical-scavenging activity)” value in assay [1] was 82.70% and 82.70 ± 0.34%. Besides, in assay [2], the “ABTS % (radical-scavenging activity)” value is 96.04% and 96.04 ± 0.37%. The IC50 on α-glucosidase amounted to 206 ± 13 µM. In assay [3], the “Fold increase of lipase activity compared to the control” value is “fivefold” and the “Effect on lipase activity (in words)” value was “do not inhibit lipase activity”.

On to `CC(=O)OC1C(Oc2cc(O)cc(O)c2C(=O)c2ccccc2)OC(CO)C(O)C1O` [HC4, 4,6-Dihydroxy Benzophenone-2-O-β-D-2″-Acetylglucopyranoside], for which, in assay [1], the “DPPH % (radical-scavenging activity)” value was 14.63% and 14.63 ± 0.50%. Besides, in assay [2], the “ABTS % (radical-scavenging activity)” value is 70.20% and 70.20 ± 0.23%. Also, the “α-Glucosidase Inhibitory Activity (IC50 ± SD)” value on α-glucosidase was “did not exhibit measurable inhibitory activity”. In assay [3], the “Effect on lipase activity (in words)” value was “did not show any significant effect on lipase activity”.

As to `COC(=O)C1(O)CC(O)C(O)C(OC(=O)C=Cc2ccc(O)c(O)c2)C1` (centres unmarked) [HC5, methyl ester of chlorogenic acid], in assay [1], the “DPPH % (radical-scavenging activity)” value was 84.57% and 84.57 ± 0.27%. Also, the “ABTS % (radical-scavenging activity)” value in assay [2] is 71.27% and 71.27 ± 0.08%. Besides, the “α-Glucosidase Inhibitory Activity (IC50 ± SD)” value on α-glucosidase is “did not exhibit measurable inhibitory activity”. For the same molecule, the “Effect on lipase activity (in words)” value in assay [3] is reported as “do not inhibit lipase activity”.

With `CC(C)C1CC(OC2OC(COC(=O)C=Cc3ccc(O)cc3)C(O)C(O)C2O)CC(=O)O1` [HC6, 4-O-{6-[(2E)-p-Hydroxycinnamoyl]-β-D-Glucopyranosyl}-6-isopropyl-tetrahydro-2H-pyran-2-one], in assay [1], the “DPPH % (radical-scavenging activity)” value was 15.93% and 15.93 ± 0.33%. In addition, the “ABTS % (radical-scavenging activity)” value in assay [2] was 25.50% and 25.50 ± 0.12%. For the same molecule, at α-glucosidase, the IC50 amounted to 371 ± 9 µM. Also, in assay [3], the “Effect on lipase activity (in words)” value is “do not inhibit lipase activity”.

Consider `COC(=O)CC(CC(O)C(C)C)O[C@@H]1O[C@H](COC(=O)/C=C/c2ccc(O)cc2)[C@@H](O)[C@H](O)[C@H]1O` (stereo partly drawn) [HC7, Methyl 3-O-{6-[(2E)-p-hydroxycinnamoyl]-β-glucopyranosyl}-6-methyl-5-hydroxyheptanoate], for which, in assay [1], the “DPPH % (radical-scavenging activity)” value is 11.48% and 11.48 ± 0.21%. For the same molecule, the “ABTS % (radical-scavenging activity)” value in assay [2] was 26.88% and 26.88 ± 0.33%. The “α-Glucosidase Inhibitory Activity (IC50 ± SD)” value on α-glucosidase was “did not exhibit measurable inhibitory activity”. Also, in assay [3], the “Effect on lipase activity (in words)” value is reported as “did not show any significant effect on lipase activity”.

As for `Cc1c(C)c2c(c(C)c1O)CCC(C)(C(=O)O)O2` (centres unmarked) [Trolox, reference compound], the “DPPH % (radical-scavenging activity)” value in assay [1] is listed as 88.33 ± 0.33%. In addition, the “ABTS % (radical-scavenging activity)” value in assay [2] is 94.16% and 94.16 ± 0.32%.

Consider `O=C1O[C@H]([C@@H](O)CO)C(O)=C1O` [Vit C, reference compound], for which the “DPPH % (radical-scavenging activity)” value in assay [1] was determined as 59.44 ± 0.42%. The “ABTS % (radical-scavenging activity)” value in assay [2] is recorded as 66.21 ± 0.45%; in assay [2] (listed as Vitamin C) it was 66.21%.
